Patent publication US20090182020A1, “SUBSTITUTED BIS(HETERO)AROMATIC N--ETHYLPROPIOLAMIDES AND USE THEREOF FOR PRODUCTION OF MEDICAMENTS” (GRUNENTHAL GMBH, priority 2005, published 2009)

Each molecule was assayed against T1, mGluR5 receptor (pig) (Sus scrofa, UniProt I3LUI7) (assay: [3H]-MPEP bond in the mGluR5 receptor bond assay (pig brain homogenate)). Details: 5 nM [3H]-MPEP; pig brain homogenate.
T1 construct: 450 μg protein from brain homogenate is incubated with 5 nM ^3[H]-MPEP; from tissue; host or cells: pig brain halves without medulla, cerebellum and pons
T1 sequence (I3LUI7 19-1212): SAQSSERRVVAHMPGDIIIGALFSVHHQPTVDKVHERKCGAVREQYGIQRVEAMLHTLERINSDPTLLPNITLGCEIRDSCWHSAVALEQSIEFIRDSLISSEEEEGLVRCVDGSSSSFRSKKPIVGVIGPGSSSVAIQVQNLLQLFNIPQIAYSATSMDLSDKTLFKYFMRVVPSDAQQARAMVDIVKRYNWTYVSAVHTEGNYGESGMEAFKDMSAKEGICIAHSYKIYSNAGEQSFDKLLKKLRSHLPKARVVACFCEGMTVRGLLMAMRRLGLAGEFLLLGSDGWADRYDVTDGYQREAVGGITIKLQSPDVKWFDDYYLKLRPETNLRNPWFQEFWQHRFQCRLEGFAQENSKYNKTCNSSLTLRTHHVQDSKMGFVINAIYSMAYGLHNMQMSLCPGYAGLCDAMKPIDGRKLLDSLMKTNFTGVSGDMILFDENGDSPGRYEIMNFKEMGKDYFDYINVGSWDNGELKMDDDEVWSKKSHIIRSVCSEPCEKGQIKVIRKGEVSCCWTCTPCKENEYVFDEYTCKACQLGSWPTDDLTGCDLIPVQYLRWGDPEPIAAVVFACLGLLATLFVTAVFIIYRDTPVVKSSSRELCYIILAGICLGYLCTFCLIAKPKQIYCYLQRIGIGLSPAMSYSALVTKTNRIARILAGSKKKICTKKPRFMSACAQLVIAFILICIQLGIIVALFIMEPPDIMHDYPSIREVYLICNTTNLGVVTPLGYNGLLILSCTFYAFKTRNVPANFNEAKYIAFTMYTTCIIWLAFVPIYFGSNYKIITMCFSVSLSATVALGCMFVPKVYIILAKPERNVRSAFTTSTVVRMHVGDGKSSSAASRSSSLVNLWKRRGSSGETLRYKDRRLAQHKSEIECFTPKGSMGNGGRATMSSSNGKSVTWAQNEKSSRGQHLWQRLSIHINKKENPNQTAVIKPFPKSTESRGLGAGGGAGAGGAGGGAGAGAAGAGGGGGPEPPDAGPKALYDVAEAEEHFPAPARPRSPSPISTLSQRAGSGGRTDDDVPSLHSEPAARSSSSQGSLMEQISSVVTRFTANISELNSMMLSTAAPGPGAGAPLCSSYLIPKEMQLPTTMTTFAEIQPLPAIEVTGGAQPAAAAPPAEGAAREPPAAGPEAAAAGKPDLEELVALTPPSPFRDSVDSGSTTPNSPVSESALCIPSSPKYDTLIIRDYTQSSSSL
Assay type: binding
Experimental: I. Method for Determining the Inhibition of the [^3H]-MPEP Bond in the mGluR5 Receptor Bond Assay
Pig brain homogenate is produced by homogenisation (Polytron PT 3000, Kinematica AG, 10,000 rpm for 90 seconds) of pig brain halves without medulla, cerebellum and pons in buffer pH 8.0 (30 mM Hepes, Sigma, order no. H3375+1 tablet complete to 100 ml, Roche Diagnostics, order no. 1836145) in the ratio 1:20 (brain weight/volume) and differential centrifugation at 900×g and 40,000×g. In each case, 450 μg protein from brain homogenate is incubated with 5 nM ^3[H]-MPEP (Tocris, order no. […]
Thereafter, the batches are filtered with the help of a Brandel Cell Harvester (Brandel, TYP Robotic 9600) on unifilter plates with glass fibre filter mats (Perkin Elmer, order no. 6005177) and subsequently washed with buffer (as above) 3 times with in each case 250 μl per sample. The filter plates are subsequently dried for 60 min at 55° C. 30 μL Ultima Gold™ scintillator (Packard BioScience, order no. 6013159) is subsequently added per well and the samples are measured after 3 hours on the β-counter (Mikrobeta, Perkin Elmer). The unspecific bond is determined by addition of 10 μM MPEP (Tocris, order no. 1212).

Structure (SMILES) | IC50
CN(CCc1ccccc1)C(=O)C#Cc1cccc(Cl)c1 [Example 1, 3-(3-chlorophenyl)-N-methyl-N-phenethylpropiolamide] | 12 nM
O=C(C#Cc1cccc(Cl)c1)NCCn1cccc1 [Example 230, N-(2-(1H-pyrrol-1-yl)ethyl)-3-(3-chlorophenyl)propiolamide] | 190 nM
CN(CCc1cccc(C(F)(F)F)c1)C(=O)C#Cc1cccc(Cl)c1 [Example 222, 3-(3-chlorophenyl)-N-methyl-N-(3-(trifluoromethyl)phenethyl)propiolamide] | 75 nM
CN(CCc1ccc(F)cc1)C(=O)C#Cc1cccc(Cl)c1 [Example 220, 3-(3-chlorophenyl)-N-(4-fluorophenethyl)-N-methylpropiolamide] | 9 nM
CN(CCc1ccncc1)C(=O)C#Cc1cccc(Cl)c1 [Example 244, 3-(3-chlorophenyl)-N-methyl-N-(2-(pyridine-4-yl)ethyl)propiolamide] | 23 nM
CN(CCc1cccc(F)c1)C(=O)C#Cc1cccc(Cl)c1 [Example 221, 3-(3-chlorophenyl)-N-(3-fluorophenethyl)-N-methylpropiolamide] | 8 nM
CC(Cc1cccnc1)NC(=O)C#Cc1cccc(Cl)c1 (centres unmarked) [Example 246, 3-(3-chlorophenyl)-N-(1-(pyridine-3-yl)propane-2-yl)propiolamide] | 10 nM
CN(CCc1ccccc1C(F)(F)F)C(=O)C#Cc1cccc(Cl)c1 [Example 251, 3-(3-chlorophenyl)-N-methyl-N-(2-(trifluormethyl)phenethyl)propiolamide] | 28 nM
CN(CCn1cccn1)C(=O)C#Cc1cccc(Cl)c1 [Example 234, N-(2-(1H-pyrazol-1-yl)ethyl)-3-(3-chlorophenyl)-N-methylpropiolamide] | 51 nM

The remaining lines, values ahead:

IC50 | Structure (SMILES)
2000 nM | O=C(C#Cc1cccc(Cl)c1)NCCc1ccncc1 [Example 4, 3-(3-chlorophenyl)-N-(2-(pyridine-4-yl)ethyl)propiolamide]
13 nM | Cc1ccccc1CCNC(=O)C#Cc1cccc(Cl)c1 [Example 223, 3-(3-chlorophenyl)-N-(2-methylphenethyl)propiolamide]
34 nM | O=C(C#Cc1cccc(Cl)c1)NCCc1ccccn1 [Example 3, 3-(3-chlorophenyl)-N-(2-(pyridine-2-yl)ethyl)propiolamide]
260 nM | Cc1ncccc1CCNC(=O)C#Cc1cccc(Cl)c1 [Example 248, 3-(3-chlorophenyl)-N-(2-(2-methylpyridine-3-yl)ethyl)propiolamide]
29 nM | CN(CCc1ccccn1)C(=O)C#Cc1cccc(Cl)c1 [Example 236, 3-(3-chlorophenyl)-N-methyl-N-(2-(pyridine-2-yl)ethyl)propiolamide]

Same assay, conditions: 10 μM test compound; 5 nM [3H]-MPEP; 450 μg protein pig brain homogenate; 60 min room temperature

Structure (SMILES) | inhibition at 10 µM
COc1cccc(C#CC(=O)NCCc2ccc(Cl)cc2)c1 [Example 133, N-(4-chlorophenethyl)-3-(3-methoxyphenyl)propiolamide] | 65%
N#Cc1cccc(C#CC(=O)NCCc2ccc(Cl)cc2)c1 [Example 192, N-(4-chlorophenethyl)-3-(3-cyanophenyl)propiolamide] | 91%
Cc1cc(C#CC(=O)N(C)CCc2ccccc2)ccc1F [Example 41, 3-(4-fluoro-3-methylphenyl)-N-methyl-N-phenethylpropiolamide] | 92%
COc1ccccc1CCNC(=O)C#Cc1ccccc1F [Example 194, 3-(2-fluorophenyl)-N-(2-methoxyphenethyl)propiolamide] | 81%
COc1cccc(C#CC(=O)NCCc2ccc(F)cc2)c1 [Example 61, N-(4-fluorophenethyl)-3-(3-methoxyphenyl)propiolamide] | 85%
Cc1ccc(CCNC(=O)C#Cc2cccc(C#N)c2)cc1 [Example 97, 3-(3-cyanophenyl)-N-(4-methylphenethyl)propiolamide] | 96%
N#Cc1cccc(C#CC(=O)NCCc2ccc(F)cc2)c1 [Example 99, 3-(3-cyanophenyl)-N-(4-fluorophenethyl)propiolamide] | 89%
O=C(C#Cc1ccc(F)cc1)NCCc1ccc(F)cc1 [Example 92, N-(4-fluorophenethyl)-3-(4-fluorophenyl)propiolamide] | 42%
CN(CCc1ccccc1)C(=O)C#Cc1ccccc1C#N [Example 55, 3-(2-cyanophenyl)-N-methyl-N-phenethylpropiolamide] | 40%
COc1cccc(C#CC(=O)NCCc2ccccc2OC)c1 [Example 132, N-(2-methoxyphenethyl)-3-(3-methoxyphenyl)propiolamide] | 83%
Cc1cc(C#CC(=O)NCCc2cccc(Cl)c2)ccc1F [Example 62, N-(3-chlorophenethyl)-3-(4-fluoro-3-methylphenyl)propiolamide] | 75%

More lines, now with the values ahead:

inhibition at 10 µM | Structure (SMILES)
110% | COc1ccccc1CCNC(=O)C#Cc1ccccc1 [Example 136, N-(2-methoxyphenethyl)-3-phenylpropiolamide]
79% | O=C(C#Cc1cccs1)NCCc1ccccc1 [Example 85, N-phenethyl-3-(thiophene-2-yl)propiolamide]
76% | O=C(C#Cc1cccs1)NCCc1cccs1 [Example 73, 3-(thiophene-2-yl)-N-(2-(thiophene-2-yl)ethyl)propiolamide]
90% | Cc1cccc(C#CC(=O)NCCc2ccccn2)c1 [Example 18, N-(2-(pyridine-2-yl)ethyl)-3-m-tolyl-propiolamide]
31% | O=C(C#Cc1cccs1)NCC(c1ccccc1)c1ccccc1 [Example 96, N-(2,2-diphenylethyl)-3-(thiophene-2-yl)propiolamide]
68% | O=C(C#Cc1cccs1)NCCc1ccccn1 [Example 25, N-(2-(pyridine-2-yl)ethyl)-3-thiophene-2-yl-propiolamide]
89% | Cc1cccc(C#CC(=O)NCCc2ccccc2)c1 [Example 84, N-phenethyl-3-m-tolylpropiolamide]
57% | O=C(C#Cc1ccc(F)cc1)NCCc1ccccc1 [Example 72, 3-(4-fluorophenyl)-N-phenethylpropiolamide]
67% | O=C(C#Cc1ccccc1F)NCCc1cccs1 [Example 118, 3-(2-fluorophenyl)-N-(2-(thiophene-2-yl)ethyl)propiolamide]
82% | Cc1cc(C#CC(=O)NCCc2ccccn2)ccc1F [Example 7, 3-(4-fluoro-3-methylphenyl)-N-(2-(pyridine-2-yl)ethyl)propiolamide]
65% | O=C(C#Cc1cccs1)NCCc1ccc(Cl)cc1 [Example 190, N-(4-chlorophenethyl)-3-(thiophene-2-yl)propiolamide]
84% | O=C(C#Cc1cccs1)NCCc1cccc(Cl)c1 [Example 94, N-(3-chlorophenethyl)-3-(thiophene-2-yl)propiolamide]

Each molecule was assayed on rats (assay: Formaline test in rats (phase 2, pain rate)). Details: i.v. administration at 21.5 mg/kg, formaline test phase 2.
Assay type: in vivo, rat
Experimental: III. Formaline Test in Rats:
The formaline test (Dubuisson, D. and Dennis, S. G., 1977, Pain, 4, 161-174) represents a model for acute and chronic pain. A biphasic nociceptive reaction, which is recorded by observation of three clearly differentiable behavioural patterns, is induced by a single formaline injection into the dorsal side of a rear paw in freely mobile test animals. The reaction has two phases: Phase 1=Immediate reaction (duration up to 10 min; paw shaking, licking), Phase 2=Late reaction (after a rest phase; likewise, paw shaking, licking; duration up to 60 min). The 1st phase reflects a direct stimulation of the peripheral nocisensors with high spinal nociceptive input or glutamate release (acute pain phase); the 2nd phase reflects a spinal and peripheral hypersensitisation (chronic pain phase). In the investigations presented here, the chronic pain component (phase 2) was evaluated.
Formaline with a volume of 50 μl and a concentration of 5% is administered subcutaneously into the dorsal side of the right rear paw of each animal. […] The calculation of PR is performed on the basis of a numerical weighting (=in each case factor 1, 2, 3) of the observed forms of behaviour (corresponding behavioural score 1, 2, 3) and is calculated with the following formula: […]

Structure (SMILES) | inhibition of the pain reaction
CN(CCc1ccccc1)C(=O)C#Cc1cccc(Cl)c1 [Example 1, 3-(3-chlorophenyl)-N-methyl-N-phenethylpropiolamide] | 60%
